Experiments:
human CXCR3A = human CXCR3A (Homo sapiens (Human), UniProt P49682); assay: FLIPR assay; format: cell-based; conditions: CHO-K1 cells expressing the human CXCR3A coupled to Galpha(16); CXCL10 agonist 20 nM; Fluo-4-AM fluorescence; mean values if determined several times
Experimental: The bioactivity of compounds is tested in a fluorometric imaging plate reader (FLIPR: Molecular Devices) using engineered CHO-K1 cells expressing the human CXCR3A coupled to a G protein (Galpha(16)). Cells are plated the day prior to bioassay in F12 medium supplemented with 10% FBS and G418 and hygromycin antibiotics to maintain recombinant selection. At the day of bioassay, cells are washed and dye loaded for one hour with Fluo-4-AM (Invitrogen) in Hanks Balanced Salt Solution (Invitrogen), buffered with 20 mM Hepes at pH 7.4 and sodium bicarbonate (0.015%), containing 5 mM probenecid. […] Cells are washed free of excess dye and 60 microliter of wash buffer is added. Stock solutions of test compounds are made up at a concentration of 10 mM in DMSO, and serially diluted in dilution buffer to concentrations required for inhibition dose response curves. After a 10 minute incubation period at 37° C., 10 microliters of each compound dilution are transferred from a compound plate to the plate containing the recombinant cells in the FLIPR instrument according to the manufacturer's instructions. Following basal readings, 10 microliter CXCL10 agonist at a concentration of 20 nM (from Peprotech) is added, again using the FLIPR instrument. Changes in fluorescence are monitored before and after addition of the test compounds. Emission peak values above base level after CXCL10 addition are exported after base line subtraction. The program XLfit is used to fit the data to a single site dose response curve and to calculate IC50 values.

CXCR3 = CXCR3 (Homo sapiens (Human), UniProt P49682); assay: Receptor internalization assay; format: cell-based; conditions: human whole blood; final CXCL10 concentration 9 nM; 30 min 37° C.; CXCR3 cell surface expression on CD3 positive cells, flow cytometer; read-out: Internalization IC50
Chain of CXCR3 (P49682 whole entry): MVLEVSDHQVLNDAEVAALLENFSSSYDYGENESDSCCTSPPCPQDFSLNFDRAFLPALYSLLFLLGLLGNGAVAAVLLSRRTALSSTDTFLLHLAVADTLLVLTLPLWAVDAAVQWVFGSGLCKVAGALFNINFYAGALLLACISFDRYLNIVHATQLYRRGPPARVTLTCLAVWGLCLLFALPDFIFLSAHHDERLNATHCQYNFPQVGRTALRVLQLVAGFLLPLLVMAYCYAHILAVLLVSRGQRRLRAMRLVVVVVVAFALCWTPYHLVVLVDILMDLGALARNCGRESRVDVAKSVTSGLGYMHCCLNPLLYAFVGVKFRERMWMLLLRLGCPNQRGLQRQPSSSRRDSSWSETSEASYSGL
Experimental: B): Receptor Internalization Assay:
Stock solutions of test compounds are made up at a concentration of 10 mM in DMSO, and serially diluted in PBS containing 0.5% BSA to concentrations required for inhibition dose response curves. Diluted compounds are then mixed with an equal volume of CXCL10 (Peprotech) diluted in PBS. Anticoagulated venous human whole blood is added to the mixture, which is then incubated in a CO2 incubator at 37° C. to allow for ligand mediated receptor internalization (final CXCL10 concentration is 9 nM). After 30′, the blood is mixed with fluorescently labeled CXCR3 and CD3 specific antibodies (Becton Dickinson) and incubated on ice for 10 minutes. Samples are then mixed with BD FACS Lysing Solution (Becton Dickinson) in order to eliminate red blood cells. After washing the cells with PBS containing 0.5% BSA, the samples are then analyzed in a flow cytometer (FACS Canto II, Becton Dickinson). For data analysis using FACSDiva software (Becton Dickinson), the mean fluorescence corresponding to CXCR3 cell surface expression was determined on CD3 positive cells. The program GraphPad Prism is used to fit the data to a single site dose response curve and to calculate IC50 values.

Chain of human CXCR3A (P49682 whole entry): as above

| SMILES | IC50 (human CXCR3A) [nM] | IC50 (CXCR3) [nM] |
| --- | --- | --- |
| CC(O)c1nc(-c2nc3ccccc3[nH]2)c(N2CCN(C(=O)Cn3ccc4cccnc43)CC2)s1 (racemic) [Example 43, rac-1-{4-[4-(1H-Benzoimidazol-2-yl)-2-(1-hydroxy-ethyl)-thiazol-5-yl]-piperazin-1-yl}-2-pyrrolo[2,3-b]pyridin-1-yl-ethanone] | 55 | 4090 |
| O=C(Cn1cnc2ccccc21)N1CCN(c2scnc2-c2nc3ccccc3[nH]2)CC1 [Example 1, 2-Benzoimidazol-1-yl-1-{4-[4-(1H-benzoimidazol-2-yl)-thiazol-5-yl]-piperazin-1-yl}-ethanone] | 30 | 3080 |
| Cc1nc2ccccc2n1CC(=O)N1CCN(c2scnc2-c2nc3ccccc3[nH]2)CC1 [Example 2, 1-{4-[4-(1H-Benzoimidazol-2-yl)-thiazol-5-yl]-piperazin-1-yl}-2-(2-methyl-benzoimidazol-1-yl)-ethanone] | 198 | 3360 |
| Cn1c(=O)n(CC(=O)N2CCN(c3scnc3-c3nc4ccccc4[nH]3)CC2)c2ccccc21 [Example 3, 1-(2-{4-[4-(1H-Benzoimidazol-2-yl)-thiazol-5-yl]-piperazin-1-yl}-2-oxo-ethyl)-3-methyl-1,3-dihydro-benzoimidazol-2-one] | 15 | 1200 |
| O=C(Cn1ccc2ccccc21)N1CCN(c2scnc2-c2nc3ccccc3[nH]2)CC1 [Example 4, 1-{4-[4-(1H-Benzoimidazol-2-yl)-thiazol-5-yl]-piperazin-1-yl}-2-indol-1-yl-ethanone] | 15 | 2610 |
| O=C(Cn1cnc2cccnc21)N1CCN(c2scnc2-c2nc3ccccc3[nH]2)CC1 [Example 14, 1-{4-[4-(1H-Benzoimidazol-2-yl)-thiazol-5-yl]-piperazin-1-yl}-2-imidazo[4,5-b]pyridin-3-yl-ethanone] | 11 | 1800 |
| O=C(Cn1ccc2cccnc21)N1CCN(c2scnc2-c2nc3ccccc3[nH]2)CC1 [Example 15, 1-{4-[4-(1H-Benzoimidazol-2-yl)-thiazol-5-yl]-piperazin-1-yl}-2-pyrrolo[2,3-b]pyridin-1-yl-ethanone] | 14 | 2420 |
| C[C@@H]1CN(c2scnc2-c2nc3ccccc3[nH]2)CCN1C(=O)Cn1cnc2cccnc21 [Example 17, 1-{(R)-4-[4-(1H-Benzoimidazol-2-yl)-thiazol-5-yl]-2-methyl-piperazin-1-yl}-2-imidazo[4,5-b]pyridin-3-yl-ethanone] | 6 | 447 |
| C[C@@H]1CN(c2scnc2-c2nc3ccccc3[nH]2)CCN1C(=O)Cc1c[nH]c2ccccc12 [Example 124, 1-{(R)-4-[4-(1H-Benzoimidazol-2-yl)-thiazol-5-yl]-2-methyl-piperazin-1-yl}-2-(1H-indol-3-yl)-ethanone] | 10 | – |
| C[C@@H]1CN(c2scnc2-c2nc3ccccc3[nH]2)CCN1C(=O)Cc1cn(C)c2ccccc12 [Example 125, 1-{(R)-4-[4-(1H-Benzoimidazol-2-yl)-thiazol-5-yl]-2-methyl-piperazin-1-yl}-2-(1-methyl-1H-indol-3-yl)-ethanone] | 71 | – |
| COc1ccc2[nH]cc(CC(=O)N3CCN(c4scnc4-c4nc5ccccc5[nH]4)C[C@H]3C)c2c1 [Example 126, 1-{(R)-4-[4-(1H-Benzoimidazol-2-yl)-thiazol-5-yl]-2-methyl-piperazin-1-yl}-2-(5-methoxy-1H-indol-3-yl)-ethanone] | 68 | – |
| C[C@@H]1CN(c2scnc2-c2nc3ccccc3[nH]2)CCN1C(=O)Cc1c[nH]c2ccc(Cl)cc12 [Example 127, 1-{(R)-4-[4-(1H-Benzoimidazol-2-yl)-thiazol-5-yl]-2-methyl-piperazin-1-yl}-2-(5-chloro-1H-indol-3-yl)-ethanone] | 490 | – |
| C[C@@H]1CN(c2scnc2-c2nc3ccccc3[nH]2)CCN1C(=O)Cc1c[nH]c2ccc(F)cc12 [Example 128, 1-{(R)-4-[4-(1H-Benzoimidazol-2-yl)-thiazol-5-yl]-2-methyl-piperazin-1-yl}-2-(5-fluoro-1H-indol-3-yl)-ethanone] | 47 | – |
| C[C@@H]1CN(c2scnc2-c2nc3ccccc3[nH]2)CCN1C(=O)Cc1nc2cc(Cl)ccc2[nH]1 [Example 129, 1-{(R)-4-[4-(1H-Benzoimidazol-2-yl)-thiazol-5-yl]-2-methyl-piperazin-1-yl}-2-(5-chloro-1H-benzoimidazol-2-yl)-ethanone] | 109 | – |
| Cc1ccc2onc(CC(=O)N3CCN(c4scnc4-c4nc5ccccc5[nH]4)C[C@H]3C)c2c1 [Example 131, 1-{(R)-4-[4-(1H-Benzoimidazol-2-yl)-thiazol-5-yl]-2-methyl-piperazin-1-yl}-2-(5-methyl-benzo[d]isoxazol-3-yl)-ethanone] | 8 | – |
| C[C@@H]1CN(c2scnc2-c2nc3ccccc3[nH]2)CCN1C(=O)Cc1csc2ccccc12 [Example 133, 2-Benzo[b]thiophen-3-yl-1-{(R)-4-[4-(1H-benzoimidazol-2-yl)-thiazol-5-yl]-2-methyl-piperazin-1-yl}-ethanone] | 6 | – |
| C[C@@H]1CN(c2scnc2-c2nc3ccccc3[nH]2)CCN1C(=O)Cc1csc2ccc(Cl)cc12 [Example 134, 1-{(R)-4-[4-(1H-Benzoimidazol-2-yl)-thiazol-5-yl]-2-methyl-piperazin-1-yl}-2-(5-chloro-benzo[b]thiophen-3-yl)-ethanone] | 115 | – |
| COc1ccc2c(CC(=O)N3CCN(c4scnc4-c4nc5ccccc5[nH]4)C[C@H]3C)coc2c1 [Example 135, 1-{(R)-4-[4-(1H-Benzoimidazol-2-yl)-thiazol-5-yl]-2-methyl-piperazin-1-yl}-2-(6-methoxy-benzofuran-3-yl)-ethanone] | 88 | – |
| C[C@@H]1CN(c2scnc2-c2nc3ccccc3[nH]2)CCN1C(=O)Cc1ccc2c(c1)CCO2 [Example 136, 1-{(R)-4-[4-(1H-Benzoimidazol-2-yl)-thiazol-5-yl]-2-methyl-piperazin-1-yl}-2-(2,3-dihydro-benzofuran-5-yl)-ethanone] | 26 | – |
| C[C@@H]1CN(c2scnc2-c2nc3ccccc3[nH]2)CCN1C(=O)Cn1ccc2ncc(Cl)nc21 [Example 140, 1-{(R)-4-[4-(1H-Benzoimidazol-2-yl)-thiazol-5-yl]-2-methyl-piperazin-1-yl}-2-(3-chloro-pyrrolo[2,3-b]pyrazin-5-yl)-ethanone] | 6 | – |
| C[C@@H]1CN(c2scnc2-c2nc3cc(Cl)ccc3[nH]2)CCN1C(=O)CN1CCc2ccccc21 [Example 145, 1-{(R)-4-[4-(5-Chloro-1H-benzoimidazol-2-yl)-thiazol-5-yl]-2-methyl-piperazin-1-yl}-2-(2,3-dihydro-indol-1-yl)-ethanone] | 11 | – |
| C[C@@H]1CN(c2scnc2-c2nc3ccccc3[nH]2)CCN1C(=O)Cn1cccc2oc(=O)nc1-2 [Example 156, 4-(2-{(R)-4-[4-(1H-Benzoimidazol-2-yl)-thiazol-5-yl]-2-methyl-piperazin-1-yl}-2-oxo-ethyl)-4H-oxazolo[4,5-b]pyridin-2-one] | 64 | – |
| C[C@@H]1CN(c2scnc2-c2nc3ccccc3[nH]2)CCN1C(=O)CN1C(=O)C(=O)c2ccccc21 [Example 157, 1-(2-{(R)-4-[4-(1H-Benzoimidazol-2-yl)-thiazol-5-yl]-2-methyl-piperazin-1-yl}-2-oxo-ethyl)-1H-indole-2,3-dione] | 4 | – |
| C[C@@H]1CN(c2sc(CCC(=O)O)nc2-c2nc3ccccc3[nH]2)CCN1C(=O)Cn1ccc2cccnc21 [Example 224, 3-{4-(1H-Benzoimidazol-2-yl)-5-[(R)-3-methyl-4-(2-pyrrolo[2,3-b]pyridin-1-yl-acetyl)-piperazin-1-yl]-thiazol-2-yl}-propionic acid] | 100 | – |
| Cc1nc(C)n(CC(=O)N2CCN(c3sc(C(F)(F)F)nc3-c3nc4ccc(N5CCCC5=O)cc4[nH]3)C[C@H]2C)n1 [Example 235, 1-[2-(5-{(R)-4-[2-(3,5-Dimethyl-[1,2,4]triazol-1-yl)-acetyl]-3-methyl-piperazin-1-yl}-2-trifluoromethyl-thiazol-4-yl)-3H-benzoimidazol-5-yl]-pyrrolidin-2-one] | 30 | – |
| O=C(Cn1cnc2cccnc21)N1CCN(c2ncsc2-c2nc3ccccc3[nH]2)CC1 [compound 114, 1-{4-[5-(1H-Benzoimidazol-2-yl)-thiazol-4-yl]-piperazin-1-yl}-2-imidazo[4,5-b]pyridin-3-yl-ethanone, reference compound] | 2990 | – |
